Assay results taken from patent US9150568B2, “Compositions and methods for modulating FXR” (NOVARTIS AG, priority 2010, dated 2015).

Target: T1, human Farnesoid X Receptor (FXR) ligand binding domain (GST-FXR LBD) (Homo sapiens, UniProt Q96RI1)
T1 construct: purchased Invitrogen
T1 sequence (Q96RI1 193-472 isoform Q96RI1-2): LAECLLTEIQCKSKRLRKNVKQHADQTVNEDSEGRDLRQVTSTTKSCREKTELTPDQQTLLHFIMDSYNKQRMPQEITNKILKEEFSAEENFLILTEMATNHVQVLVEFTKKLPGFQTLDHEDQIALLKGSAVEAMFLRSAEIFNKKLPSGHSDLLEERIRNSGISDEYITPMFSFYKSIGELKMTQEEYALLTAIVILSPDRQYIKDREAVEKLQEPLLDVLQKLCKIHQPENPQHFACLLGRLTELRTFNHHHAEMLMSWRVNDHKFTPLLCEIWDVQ
Test: Human GST-FXR LBD co-activator interaction assay (HTRF)
Assay type: biochemical
Settings: GST-FXR LBD / biotin-SRC-1 peptide FRET; response relative to GW4064; read-out: FXR Co-activator interaction assay (EC50)
How it was run: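 FRET (HTRF) read-out of ligand-induced binding between GST-FXR LBD and an SRC-1 peptide, detected with anti-GST cryptate and streptavidin-XL665 in buffer with 50 mM KF. Response % was normalized to DMSO and to the maximal GW4064 response. EC50 came from a four-parameter fit.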

Row | Structure (SMILES) | EC50 [nM]
1 | O=C(O)c1cnn2ccc(N3C4CC[C@H]3CC(OCc3c(-c5ccccc5OC(F)(F)F)noc3C3CC3)C4)nc12 (some centres unmarked) [Example 30-59] | 92
2 | O=C(O)c1cnc2ccc(N3C4CC[C@H]3CC(OCc3c(-c5ccccc5OC(F)(F)F)noc3C3CC3)C4)nn12 (some centres unmarked) [Example 30-60] | 94
3 | O=C(O)c1ccc2nc(N3C4CC[C@H]3CC(OCc3c(-c5ccc(F)cc5F)noc3C3CC3)C4)sc2c1 (some centres unmarked) [Example 30-61] | 2
4 | O=C(O)c1ccc(N2C3CC[C@H]2CC(OCc2c(-c4ccc(F)cc4F)noc2C2CC2)C3)nc1 (some centres unmarked) [Example 30-63] | 57
5 | COc1cc(C(=O)O)cc2sc(N3C4CC[C@H]3CC(OCc3c(-c5cccc(F)c5F)noc3C3CC3)C4)nc12 (some centres unmarked) [Example 30-64] | 7
6 | O=C(O)c1ccc(N2[C@@H]3CC[C@H]2C[C@@H](OCc2c(-c4cccc(F)c4F)noc2C2CC2)C3)nc1 [Example 30-65] | 86
7 | Cc1cc(C(=O)O)nc(N2C3CC[C@H]2CC(OCc2c(-c4cccc(F)c4F)noc2C2CC2)C3)n1 (some centres unmarked) [Example 30-66] | 220
8 | COc1cc(C(=O)O)cc2sc(N3[C@@H]4CC[C@H]3C[C@@H](OCc3c(-c5ccccc5F)noc3C3CC3)C4)nc12 [Example 30-67] | 0.5
9 | Cc1cc(C(=O)O)nc(N2C3CC[C@H]2CC(OCc2c(-c4ccccc4F)noc2C2CC2)C3)n1 (some centres unmarked) [Example 30-68] | 13
10 | O=C(O)c1ccc(N2[C@@H]3CC[C@H]2C[C@@H](OCc2c(-c4ccccc4F)noc2C2CC2)C3)nc1 [Example 30-69] | 21
11 | O=C(O)c1ccc2nc(N3C4CC[C@H]3CC(OCc3c(-c5c(Cl)cccc5Cl)noc3C3CC3)C4)sc2c1 (some centres unmarked) [Example 30-70] | 0.2
12 | COc1cc(C(=O)O)cc2sc(N3[C@@H]4CC[C@H]3C[C@@H](OCc3c(-c5c(Cl)cccc5Cl)noc3C3CC3)C4)nc12 [Example 30-71] | 0.3
13 | O=C(O)c1ccc(N2C3CC[C@H]2CC(OCc2c(-c4c(Cl)cccc4Cl)noc2C2CC2)C3)nc1 (some centres unmarked) [Example 30-72] | 1.4
14 | O=C(O)c1ccc(N2C3CC[C@H]2CC(OCc2c(-c4cccnc4C(F)(F)F)noc2C2CC2)C3)nc1 (some centres unmarked) [Example 30-73] | 74
15 | O=C(O)c1csc(N2C3CC[C@H]2CC(OCc2c(-c4ccccc4OC(F)(F)F)noc2C2CC2)C3)n1 (some centres unmarked) [Example 30-74] | 3
16 | O=C(O)c1cnc(N2C3CC[C@H]2CC(OCc2c(-c4ccccc4OC(F)(F)F)noc2C2CC2)C3)s1 (some centres unmarked) [Example 30-75] | 17
17 | O=C(O)c1cnc(N2C3CC[C@H]2CC(OCc2c(-c4ccccc4C(F)(F)F)noc2C2CC2)C3)s1 (some centres unmarked) [Example 30-76] | 16
18 | O=C(O)c1cn2nc(N3C4CC[C@H]3CC(OCc3c(-c5ccccc5C(F)(F)F)noc3C3CC3)C4)ccc2n1 (some centres unmarked) [Example 31-2] | 13
19 | O=C(O)c1cc2nc(N3C4CC[C@H]3CC(OCc3c(-c5ccccc5OC(F)(F)F)noc3C3CC3)C4)ccn2n1 (some centres unmarked) [Example 31-3] | 2
20 | O=C(O)c1cc2nc(N3C4CC[C@H]3CC(OCc3c(-c5ccccc5C(F)(F)F)noc3C3CC3)C4)ccn2n1 (some centres unmarked) [Example 31-4] | 4
21 | O=C(O)c1cn2nc(N3[C@@H]4CC[C@H]3C[C@@H](OCc3c(-c5c(F)cccc5F)noc3C3CC3)C4)ccc2n1 [Example 31-5] | 10
22 | Cc1cccc(F)c1-c1noc(C2CC2)c1CO[C@H]1C[C@H]2CC[C@@H](C1)N2c1ccc2nc(C(=O)O)cn2n1 [Example 31-6] | 9
23 | O=C(O)c1cnn2ccc(N3[C@@H]4CC[C@H]3C[C@@H](OCc3c(-c5ccccc5OC(F)(F)F)noc3C3CC3)C4)cc12 [Example 32-2] | 4
